Reference: patent US10881110B2, “Herbicidal compositions comprising isoxazolo[5,4-b]pyridines” (BASF SE, priority 2014, dated 2021)

How the values were obtained:
Assay in all cases: greenhouse post-emergence herbicidal test
GERDI = format: in vivo, Geranium dissectum; design: key to herbicidal activity against GERDI found: rating on a scale from 0 to 100; conditions: post emergence
Method in brief: (§1)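 Post-emergence greenhouse test: plants in loamy sand, sprayed at 1–15 cm height with aqueous spray liquor from 10% emulsion concentrates, kept at 10-25 °C or 20-35 °C by species. Damage scored 0–100 (100 = complete destruction), usually 20 days after treatment. Expected additive effect E from Colby: E=X+Y−(X·Y/100).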

STEME = format: in vivo, Stellaria media; design: key: scale 0 to 100
Method in brief: as §1

PHACA = format: in vivo
Procedure: The culture containers used were plastic pots containing medium loamy sand with approximately 4.6% of humus and 69.9% sand as substrate. The seeds of the test plants were sown separately for each species.
For the post-emergence treatment, the test plants were grown to a plant height of from 1 to 15 cm, depending on the plant habit, and only then treated with the active compounds which had been suspended or emulsified in water. To this end, the test plants were either sown directly, and grown in the same containers, or they were first grown separately as seedlings and transplanted into the test containers a few days prior to treatment.
Depending on the species, the plants were kept at 10-25° C. and 20-35° C., respectively.
The test period extended over 1 to 3 weeks. During this time, the plants were tended and their response to the individual treatments was evaluated 20 days after treatment except mentioned otherwise.
Evaluation was carried out using a scale from 0 to 100. 100 means no emergence of the plants, or complete destruction of at least the above-ground parts, and 0 means no damage or normal course of growth.
The respective stated components A and B, and, if appropriate, C, were formulated as a 10% by weight strength emulsion concentrate and, with addition of the amount of solvent system, introduced into the spray liquor used for applying the active compound. In the examples, the solvent used was water.
In the examples below, using the method of S. R. Colby (1967) “Calculating synergistic and antagonistic responses of herbicide combinations”, Weeds 15, p. 22 ff., the value E, which is expected if the activity of the individual active compounds is only additive, was calculated. E=X+Y−(X·Y/100)

[1] = I.1 15.62 g/ha, B.89 25 g/ha a.i.
[2] = a.i. g/ha: I.1 15.6, B.67 125, 20 days after treatment
[3] = a.i. g/ha: I.1 31.25, B.190 62.5, 20 days after treatment
[4] = a.i. g/ha: I.1 31.25, B.67 125, 20 days after treatment
[5] = a.i. g/ha: I.1 31.25, B.67 125, 20 days after treatment, sub-table r36-r43
[6] = a.i. g/ha: I.1 62.5, B.67 125, 20 days after treatment

O=C(O)c1cc(C2CC2)nc2onc(C3CC3)c12 [I.1]
pest or weed control at 31.25 g/ha (GERDI; Geranium dissectum, post-emergence, 480 h, single active, 31.25 g/ha a.i., read-out: herbicidal activity against GERDI found): 10%
pest or weed control at 62.5 g/ha (GERDI; Geranium dissectum, post-emergence, 480 h, single active, 62.5 g/ha a.i., read-out: herbicidal activity against GERDI found): 60%
pest or weed control at 125 g/ha (GERDI; Geranium dissectum, post-emergence, 480 h, single active, 125 g/ha a.i., read-out: herbicidal activity against GERDI found): 70%
herbicidal activity against GERDI found (GERDI; I.1 15.6 g/ha, B.103 7.5 g/ha a.i.): 0
herbicidal activity against GERDI found (GERDI; [1]): 0
herbicidal activity against GERDI found (GERDI; I.1 31.25 g/ha, B.103 7.5 g/ha a.i.): 30
herbicidal activity against GERDI found (GERDI; I.1 31.25 g/ha, B.103 15 g/ha a.i.): 30
herbicidal activity against GERDI found (GERDI; I.1 62.5 g/ha, B.103 7.5 g/ha a.i.): 60
herbicidal activity against GERDI found (GERDI; I.1 62.5 g/ha, B.103 15 g/ha a.i.): 60
herbicidal activity against GERDI found (GERDI; I.1 62.5 g/ha, B.167 125 g/ha a.i.): 60
herbicidal activity against GERDI found (GERDI; I.1 62.5 g/ha, B.88 1 g/ha a.i.): 0
herbicidal activity against GERDI found (GERDI; I.1 62.5 g/ha, B.88 2 g/ha a.i.): 0
herbicidal activity against GERDI found (GERDI; I.1 62.5 g/ha, B.89 12.5 g/ha a.i.): 0
herbicidal activity against GERDI found (GERDI; I.1 62.5 g/ha, B.89 25 g/ha a.i.): 0
herbicidal activity against GERDI found (GERDI; I.1 62.5 g/ha, B.95 1 g/ha a.i.): 0
herbicidal activity against GERDI found (GERDI; I.1 62.5 g/ha, B.95 2 g/ha a.i.): 0
herbicidal activity against GERDI found (GERDI; a.i. g/ha: I.1 7.8, B.67 125, 20 days after treatment): 0%
herbicidal activity against GERDI found (GERDI; [2]): 0%
herbicidal activity against GERDI found (GERDI; [3]): 30%
herbicidal activity against GERDI found (GERDI; [4]): 30%
herbicidal activity against GERDI found (GERDI; [5]): 30%
herbicidal activity against GERDI found (GERDI; [6]): 40%
herbicidal activity against GERDI found (GERDI; application rate a.i.: I.1 31.25 g/ha, B.100 (isoxaflutole) 12.5 g/ha, alone or as mixture (composition 1.100)): 60
herbicidal activity against GERDI found (GERDI; application rate a.i.: I.1 31.25 g/ha, B.40 (imazethapyr) 7.5 g/ha, alone or as mixture (composition 1.40)): 30
herbicidal activity against GERDI found (GERDI; application rate a.i.: I.1 62.5 g/ha, B.100 (isoxaflutole) 12.5 g/ha, alone or as mixture (composition 1.100)): 65
herbicidal activity against GERDI found (GERDI; application rate a.i.: I.1 62.5 g/ha, B.30 (imazamox) 3.75 g/ha, alone or as mixture (composition 1.030)): 85
herbicidal activity against GERDI found (GERDI; application rate a.i.: I.1 62.5 g/ha, B.40 (imazethapyr) 7.5 g/ha, alone or as mixture (composition 1.40)): 70
herbicidal activity against GERDI found (GERDI; application rate a.i.: I.1 62.5 g/ha, B.87 (carfentrazone-ethyl) 1.75 g/ha, alone or as mixture (composition 1.87)): 85
herbicidal activity against GERDI found (GERDI; application rate a.i.: I.1 125 g/ha, B.113 (glyphosate) 135 g/ha, alone or as mixture (composition 1.113)): 80
herbicidal activity against GERDI found (GERDI; application rate a.i.: I.1 250 g/ha, B.193 15 g/ha, alone or as mixture (composition 1.193)): 95
herbicidal activity against GERDI found (GERDI; applied alone at 31.25 g/ha a.i.): 65
herbicidal activity against GERDI found (GERDI; g/ha a.i.: I.1 31.25, B.52 2.5, mixture 31.25+2.5): 50
herbicidal activity against GERDI found (GERDI; g/ha a.i.: I.1 62.5, B.52 2.5, mixture 62.5+2.5): 65
herbicidal activity against GERDI found (GERDI; g/ha a.i.: I.1 125, B.52 2.5, mixture 125+2.5): 65
herbicidal activity against STEME found (STEME; 31.25 g/ha a.i.): 70
herbicidal activity against STEME found (STEME; 62.5 g/ha a.i.): 65
herbicidal activity against STEME found (STEME; 6 days after treatment, g/ha a.i.: I.1 31.25, B.96 35, mixture 31.25+35): 60
herbicidal activity against STEME found (STEME; I.1 15.62 g/ha, B.103 15 g/ha a.i.): 60
herbicidal activity against STEME found (STEME; [1]): 0
herbicidal activity against STEME found (STEME; I.1 31.25 g/ha, B.89 12.5 g/ha a.i.): 0
herbicidal activity against STEME found (STEME; I.1 31.25 g/ha, B.89 25 g/ha a.i.): 0
herbicidal activity against STEME found (STEME; I.1 alone 31.25 g/ha a.i.): 30
herbicidal activity against STEME found (STEME; a.i. g/ha: I.1 2.3, B.67 62.5, 20 days after treatment): 0%
herbicidal activity against STEME found (STEME; a.i. g/ha: I.1 6.9, B.67 62.5, 20 days after treatment): 0%
herbicidal activity against STEME found (STEME; [2]): 0%
herbicidal activity against STEME found (STEME; a.i. g/ha: I.1 20.8, B.67 62.5, 20 days after treatment): 50%
herbicidal activity against STEME found (STEME; [3]): 70%
herbicidal activity against STEME found (STEME; [4]): 70%
herbicidal activity against STEME found (STEME; [5]): 70%
herbicidal activity against STEME found (STEME; a.i. g/ha: I.1 62.5, B.191 225, 20 days after treatment): 85%
herbicidal activity against PHACA found (PHACA; [4]): 0%
herbicidal activity against PHACA found (PHACA; [6]): 35%
